Article PMC6429507, “Triterpene-Based Carboxamides Act as Good Inhibitors of Butyrylcholinesterase” (Molecules, 2019)
Where a name gives a salt, the structure may show the parent alone. Read-outs that look alike come from different tables or passages of the source.

Assays:
[1] = target: acetylcholinesterase (AChE, electric eel) (Electrophorus electricus, UniProt O42275); settings: for Grade of inhibition in% AChE / Ki' (uncompetitive inhibition) / Ki: mean ± SE; for Type of Inhibition / Ki' (uncompetitive inhibition) / Ki: AChE, electric eel; for Ki: read-out: Ki (competitive inhibition)
Excerpt: (§1) In this study, carboxamides with different triterpenoic backbones (ursolic, oleanolic, maslinic, betulinic, and platanic acids), and various amine residues (Scheme 1), were investigated.
(§2) A TECAN SpectraFluorPlus working in the kinetic mode and measuring the absorbance at λ = 415 nm was used for the enzymatic studies. Acetylcholinesterase (from Electrophorus electricus), 5,5′-dithiobis-(2-nitrobenzoic acid) (DTNB) and acetylthiocholine iodide were purchased from Sigma. Butyrylcholinesterase (from equine serum) was purchased from Fluka. Preparation of the solutions, assay procedure, as well as molecular modeling conditions can be found in the Supplementary Materials.
(§3) 3.1 Preparation of the solutions
(§4) Preparation of 50 mM Tris-HCl buffer solutions: Tris(hydroxymethyl)-aminomethane (606 mg) was dissolved in bidestilled water (100 mL) and adjusted with HCl to a pH of 8.0 ± 0.1. Buffers were freshly prepared and stored in the refrigerator. AChE solution 2.005 U/mL: the enzyme (271 U/mg, 0.037 mg) was dissolved in freshly prepared buffer pH 8.0 (5 mL) containing NaN3 (0.98 mg). BChE solution 2.040 U/mL: the enzyme (7.54 U/mg, 1.353 mg) was dissolved in freshly prepared buffer pH 8.0 (5 mL) containing NaN3 (0.98 mg). DTNB solution 3 mM: DTNB (23.8 mg) was dissolved in freshly prepared buffer pH 8.0 (20 mL) containing NaCl (116.8 mg) and MgCl2 (38.0 mg). ATChI solution 15 mM:
(§5) ATChI (43.4 mg) was dissolved in bidestilled water (10 mL). All solutions were stored in Eppendorf caps in the refrigerator or in the freezer, if necessary. The pure compounds were […]
(§6) dissolved in bidistilled water. The final concentrations for the enzymatic assay were obtained by diluting the stock solution with bidistilled water.
(§7) A mixture of the DTNB solution (125 µL), enzyme solution (25 µL) and compounds solutions (25 µL, 3 different concentrations and once blank water) was prepared and incubated at 30 °C for 20 min. The substrate (25 µL, 4 different concentrations) was added to start the enzymatic reaction. The absorbance data (l = 415 nm) was recorded under a controlled temperature of 30 °C for 30 min at 1 min intervals. The substrate concentrations in the test were as follows: […]
(§8) determined as the quotient of the slopes (compound divided by blank) of the linear ranges.
(§9) The used substrate concentration was 0.625 mM. The absorbance data was recorded under a controlled temperature of 30 °C for 10 min.

[2] = target: T1, butyrylcholinesterase (BChE, equine serum) (Equus caballus, UniProt P81908); experiment: Ellman's assay, butyrylcholinesterase inhibition; type: biochemical; settings: for Grade of inhibition in% BChE: mean ± SE
T1 construct: Butyrylcholinesterase (from equine serum) was purchased from Fluka; purchased Fluka; host or cells: equine serum
Excerpt: as §1, §2, §3, §4, §5, §6, §7, §8, §9

[3] = BChE, equine serum, Ellman's assay
[4] = BChE, equine serum, Ellman's assay, read-out: Ki (competitive inhibition)
[5] = read-out: Grade of inhibition in% BChE

T1 sequence (P81908 whole entry): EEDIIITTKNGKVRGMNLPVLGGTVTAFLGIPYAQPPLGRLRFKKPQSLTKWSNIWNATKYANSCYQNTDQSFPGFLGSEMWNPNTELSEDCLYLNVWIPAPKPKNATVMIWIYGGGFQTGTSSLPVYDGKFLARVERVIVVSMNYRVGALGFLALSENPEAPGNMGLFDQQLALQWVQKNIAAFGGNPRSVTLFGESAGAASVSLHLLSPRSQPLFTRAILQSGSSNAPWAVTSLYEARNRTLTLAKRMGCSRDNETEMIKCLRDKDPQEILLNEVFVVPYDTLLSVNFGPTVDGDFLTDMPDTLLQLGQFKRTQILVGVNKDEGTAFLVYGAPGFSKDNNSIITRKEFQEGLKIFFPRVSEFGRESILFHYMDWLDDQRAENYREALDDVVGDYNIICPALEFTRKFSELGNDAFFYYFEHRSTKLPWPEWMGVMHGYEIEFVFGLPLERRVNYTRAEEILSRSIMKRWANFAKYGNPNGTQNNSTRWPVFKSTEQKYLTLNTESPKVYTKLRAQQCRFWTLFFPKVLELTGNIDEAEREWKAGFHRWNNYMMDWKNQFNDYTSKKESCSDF
Sequence of acetylcholinesterase (AChE, electric eel) (O42275 24-633): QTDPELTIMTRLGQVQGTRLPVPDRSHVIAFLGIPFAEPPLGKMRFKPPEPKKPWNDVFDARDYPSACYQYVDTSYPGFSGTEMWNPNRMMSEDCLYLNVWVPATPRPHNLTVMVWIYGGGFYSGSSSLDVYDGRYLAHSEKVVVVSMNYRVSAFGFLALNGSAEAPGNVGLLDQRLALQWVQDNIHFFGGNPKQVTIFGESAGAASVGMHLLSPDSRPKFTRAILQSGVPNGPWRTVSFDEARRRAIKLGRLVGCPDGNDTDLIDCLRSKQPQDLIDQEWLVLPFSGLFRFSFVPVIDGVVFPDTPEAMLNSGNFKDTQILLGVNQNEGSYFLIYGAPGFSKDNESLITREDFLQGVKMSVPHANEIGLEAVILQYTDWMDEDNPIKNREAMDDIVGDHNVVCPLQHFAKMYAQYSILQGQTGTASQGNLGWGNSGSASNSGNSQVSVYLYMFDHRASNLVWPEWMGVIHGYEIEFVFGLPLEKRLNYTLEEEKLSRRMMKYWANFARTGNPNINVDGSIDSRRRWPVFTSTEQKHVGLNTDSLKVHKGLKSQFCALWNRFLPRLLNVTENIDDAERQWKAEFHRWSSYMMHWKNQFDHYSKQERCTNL

| Compound | Grade of inhibition in% AChE ([1]; c = 10 µM) [%] | Grade of inhibition in% BChE ([2]; c = 10 µM) [%] | Type of Inhibition [1] | Ki' (uncompetitive inhibition) [1] [µM] | Ki [1] [µM] | Type of Inhibition ([2]; BChE, equine serum) | Ki′ (uncompetitive inhibition) [2, 3] [µM] | Ki [2, 4] [µM] | Grade of inhibition in% AChE ([1]; c = 30 µM) [%] | Grade of inhibition in% BChE ([2]; c = 30 µM) [%] | Ki ([2]; experimental Ki restated in docking Table 3, unit inferred, read-out: Ki) [µM] | inhibition at 10 µM [2, 5] [%] | inhibition at 30 µM [2, 5] [%] |
| --- | --- | --- | --- | --- | --- | --- | --- | --- | --- | --- | --- | --- | --- |
| C=C(C)C1CC[C@]2(C(=O)NCCN)CC[C@]3(C)C(CCC4[C@@]5(C)CC[C@H](OC(C)=O)C(C)(C)C5CC[C@]43C)C12 (stereo partly shown) [Compound 14] | 56.17 ± 0.64 | 42.70 ± 1.33 |  |  |  |  |  |  |  |  |  |  |  |
| C=C(C)C1CC[C@]2(C(=O)NCCN3CCCCC3)CC[C@]3(C)C(CCC4[C@@]5(C)CC[C@H](O)C(C)(C)C5CC[C@]43C)C12 (stereo partly drawn) [Compound 49, (3β)-N-(2-piperidin-1-ylethyl)-3-hydroxy-lup-20(29)-en-28-amide] | 82.72 ± 0.09 | 66.02 ± 0.70 | mixed-type | 1.42 ± 0.08 | 1 ± 0.09 | mixed-type | > 8 | 2.52 ± 0.29 |  |  |  |  |  |
| CC(=O)OC1CC2(C)C(CCC3(C)C2CC=C2C4CC(C)(C)CCC4(C(=O)NCCN4CCCCC4)CCC23C)C(C)(C)C1OC(C)=O (stereo not drawn) [Compound 43, (2α,3β)-N-(2-Piperidin-1-ylethyl)-2,3-diacetyloxy-olean-12-en-28-amide] |  |  |  |  |  |  |  |  | 23.30 ± 0.10 | 53.47 ± 3.47 |  |  |  |
| C=C(C)C1CC[C@]2(C(=O)NCCN3CCCC3)CC[C@]3(C)C(CCC4[C@@]5(C)CC[C@H](OC(C)=O)C(C)(C)C5CC[C@]43C)C12 (stereo partly shown) [Compound 34] | 44.15 ± 0.32 | 71.56 ± 0.54 |  |  |  | mixed-type | > 5 | 0.39 ± 0.04 |  |  | 0.39 |  |  |
| CC(=O)[C@@H]1CC[C@]2(C(=O)NCCN3CCCCC3)CC[C@]3(C)[C@H](CC[C@@H]4[C@@]5(C)CC[C@H](O)C(C)(C)[C@@H]5CC[C@]43C)[C@@H]12 [Compound 50, (3β)-N-(2-Piperidin-1-ylethyl)-3-hydroxy-20-oxo-30-norlupan-28-amide] | 52.14 ± 1.55 | 88.37 ± 0.85 |  |  |  | mixed-type | 3.09 ± 0.03 | 0.97 ± 0.04 |  |  |  |  |  |
| C[C@@H]1CC[C@]2(C(=O)NCCN3CCCC3)CC[C@]3(C)C(=CCC4[C@@]5(C)CC[C@H](O)C(C)(C)C5CC[C@]43C)C2[C@H]1C (stereo partly shown) [Compound 36] |  |  |  |  |  | mixed-type | 2.23 ± 0.12 | 0.47 ± 0.08 | 31.45 ± 0.60 | 85.66 ± 0.10 |  |  |  |
| CC(=O)[C@@H]1CC[C@]2(C(=O)NCCN)CC[C@]3(C)[C@H](CC[C@@H]4[C@@]5(C)CC[C@H](O)C(C)(C)[C@@H]5CC[C@]43C)[C@@H]12 [Compound 20] | 37.09 ± 0.97 | 12.98 ± 0.35 | mixed-type | 9.71 ± 0.03 | 7.18 ± 0.02 | mixed-type | > 110 | 8.37 ± 0.67 |  |  |  |  |  |
| CC(=O)O[C@H]1CC[C@]2(C)[C@H]3CC[C@@H]4[C@H]5[C@H](C(C)=O)CC[C@]5(C(=O)NCCN)CC[C@@]4(C)[C@]3(C)CC[C@H]2C1(C)C [Compound 15] | 44.71 ± 0.24 | 29.55 ± 2.97 | mixed-type | 6.83 ± 0.17 | 3.06 ± 0.38 | mixed-type | 17.14 ± 1.67 | 11.9 ± 1.17 |  |  |  |  |  |
| CC1(C)CCC2(C(=O)NCCN)CCC3(C)C(=CCC4C5(C)CC(O)C(O)C(C)(C)C5CCC43C)C2C1 (stereo not drawn) [Compound 18, (2α,3β)-N-(2-Aminoethyl)-2,3-dihydroxy-olean-12-en-28-amide] |  |  |  |  |  |  |  |  | 39.15 ± 0.16 | 68.83 ± 1.57 |  |  |  |
| COc1ccc2c3c1O[C@H]1C[C@@H](O)C=C[C@@]31CCN(C)C2 [GH, Galantamine hydrobromide, reference compound] |  |  |  |  |  | competitive |  |  |  |  |  | 57.79 ± 0.52 | 80.25 ± 0.33 |
